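Results reflect a 48-hour exposure of cells in 96-well plates to compound at five concentrations. Abbreviation: GI50, concentration required for 50% inhibition of growth. At the TGI there is no net growth.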
Legend:
Assay in all cases: growth of human tumour cells (NCI), 48 h
786-0 renal = tested on: 786-0 renal
A498 renal = tested on: A498 renal
A549 NSCLC = tested on: A549 NSCLC
ACHN renal = tested on: ACHN renal
BT-549 breast = tested on: BT-549 breast
CAKI-1 renal = tested on: CAKI-1 renal
CCRF-CEM leukemia = tested on: CCRF-CEM leukemia
COLO 205 colon = tested on: COLO 205 colon
DU-145 prostate = tested on: DU-145 prostate
EKVX NSCLC = tested on: EKVX NSCLC
HCC-2998 colon = tested on: HCC-2998 colon
HCT-116 colon = tested on: HCT-116 colon
HCT-15 colon = tested on: HCT-15 colon
HL-60(TB) leukemia = tested on: HL-60(TB) leukemia
HOP-62 NSCLC = tested on: HOP-62 NSCLC
HOP-92 NSCLC = tested on: HOP-92 NSCLC
HS 578T breast = tested on: HS 578T breast
HT29 colon = tested on: HT29 colon
IGROV1 ovarian = tested on: IGROV1 ovarian
K-562 leukemia = tested on: K-562 leukemia
KM12 colon = tested on: KM12 colon
LOX IMVI melanoma = tested on: LOX IMVI melanoma
M14 melanoma = tested on: M14 melanoma
MALME-3M melanoma = tested on: MALME-3M melanoma
MCF7 breast = tested on: MCF7 breast
MDA-MB-231 breast = tested on: MDA-MB-231 breast
MDA-MB-435 = tested on: MDA-MB-435
MOLT-4 leukemia = tested on: MOLT-4 leukemia
NCI-H226 lung = tested on: NCI-H226 lung
NCI-H23 lung = tested on: NCI-H23 lung
NCI-H460 lung = tested on: NCI-H460 lung
NCI-H522 lung = tested on: NCI-H522 lung
NCI/ADR-RES ovarian = tested on: NCI/ADR-RES ovarian
OVCAR-3 ovarian = tested on: OVCAR-3 ovarian
OVCAR-4 ovarian = tested on: OVCAR-4 ovarian
OVCAR-5 ovarian = tested on: OVCAR-5 ovarian
OVCAR-8 ovarian = tested on: OVCAR-8 ovarian
PC-3 prostate = tested on: PC-3 prostate
RPMI-8226 leukemia = tested on: RPMI-8226 leukemia
SF-268 CNS = tested on: SF-268 CNS
SF-295 CNS = tested on: SF-295 CNS
SF-539 CNS = tested on: SF-539 CNS
SK-MEL-2 melanoma = tested on: SK-MEL-2 melanoma
SK-MEL-28 melanoma = tested on: SK-MEL-28 melanoma
SK-MEL-5 melanoma = tested on: SK-MEL-5 melanoma
SK-OV-3 ovarian = tested on: SK-OV-3 ovarian
SN12C renal = tested on: SN12C renal
SNB-19 CNS = tested on: SNB-19 CNS
SNB-75 CNS = tested on: SNB-75 CNS
SR leukemia = tested on: SR leukemia
SW-620 colon = tested on: SW-620 colon
T-47D breast = tested on: T-47D breast
TK-10 renal = tested on: TK-10 renal
U251 CNS = tested on: U251 CNS
UACC-257 melanoma = tested on: UACC-257 melanoma
UACC-62 melanoma = tested on: UACC-62 melanoma
UO-31 renal = tested on: UO-31 renal

For `Oc1cccc(-c2nc(-c3n[nH]c(=S)n3-c3ccccc3)cc3c2[nH]c2ccccc23)c1`, the GI50 (786-0 renal) was 3.19 µM, the TGI (786-0 renal) was 11 µM and the GI50 (A498 renal) was 2.15 µM. For the same compound, the TGI (A498 renal) was 5.8 µM, the GI50 (A549 NSCLC) was 2.89 µM and the TGI (A549 NSCLC) was 11.1 µM. It also gave a GI50 (ACHN renal) of 3.95 µM, a TGI (ACHN renal) of 14.6 µM and a GI50 (BT-549 breast) of 2.67 µM. It also gave a TGI (BT-549 breast) of 6.8 µM, a GI50 (CAKI-1 renal) of 2.81 µM and a TGI (CAKI-1 renal) of 11.9 µM. The GI50 (CCRF-CEM leukemia) was 3.85 µM, the TGI (CCRF-CEM leukemia) was 18.7 µM and the GI50 (COLO 205 colon) was 2.45 µM. It also gave a TGI (COLO 205 colon) of 7.22 µM, a GI50 (DU-145 prostate) of 2.57 µM and a TGI (DU-145 prostate) of 7.02 µM. For the same compound, the GI50 (EKVX NSCLC) was 4 µM, the TGI (EKVX NSCLC) was 23.4 µM and the GI50 (HCC-2998 colon) was 2.17 µM. It also gave a TGI (HCC-2998 colon) of 4.53 µM, a GI50 (HCT-116 colon) of 3.28 µM and a TGI (HCT-116 colon) of 9.82 µM. It also gave a GI50 (HCT-15 colon) of 2.88 µM, a TGI (HCT-15 colon) of 10.9 µM and a GI50 (HL-60(TB) leukemia) of 3.38 µM. The TGI (HL-60(TB) leukemia) was 8.98 µM, the GI50 (HOP-62 NSCLC) was 2.24 µM and the TGI (HOP-62 NSCLC) was 7.96 µM. It also gave a GI50 (HOP-92 NSCLC) of 4.31 µM, a TGI (HOP-92 NSCLC) of 18.1 µM and a GI50 (HS 578T breast) of 3.43 µM. For the same compound, the TGI (HS 578T breast) was 24.6 µM, the GI50 (HT29 colon) was 2.55 µM and the TGI (HT29 colon) was 6.18 µM. The GI50 (IGROV1 ovarian) was 2.29 µM, the TGI (IGROV1 ovarian) was 11.2 µM and the GI50 (K-562 leukemia) was 3.16 µM. The TGI (K-562 leukemia) was 21.6 µM, the GI50 (KM12 colon) was 3.15 µM and the TGI (KM12 colon) was 11.7 µM. It also gave a GI50 (LOX IMVI melanoma) of 1.8 µM, a TGI (LOX IMVI melanoma) of 3.83 µM and a GI50 (M14 melanoma) of 2.72 µM. The TGI (M14 melanoma) was 10.3 µM, the GI50 (MALME-3M melanoma) was 4.05 µM and the TGI (MALME-3M melanoma) was 17.4 µM. It also gave a GI50 (MCF7 breast) of 3.37 µM, a TGI (MCF7 breast) of 13.6 µM and a GI50 (MDA-MB-231 breast) of 3.19 µM. For the same compound, the TGI (MDA-MB-231 breast) was 13 µM, the GI50 (MDA-MB-435) was 1.26 µM and the TGI (MDA-MB-435) was 4.5 µM. It also gave a GI50 (MOLT-4 leukemia) of 3.78 µM, a TGI (MOLT-4 leukemia) of 14 µM and a GI50 (NCI-H226 lung) of 3.92 µM. The TGI (NCI-H226 lung) was 18.6 µM, the GI50 (NCI-H23 lung) was 3.97 µM and the TGI (NCI-H23 lung) was 19.7 µM. For the same compound, the GI50 (NCI-H460 lung) was 3.1 µM, the TGI (NCI-H460 lung) was 9.5 µM and the GI50 (NCI-H522 lung) was 1.8 µM. It also gave a TGI (NCI-H522 lung) of 4.98 µM, a GI50 (NCI/ADR-RES ovarian) of 13.2 µM and a TGI (NCI/ADR-RES ovarian) of 69.7 µM. The GI50 (OVCAR-3 ovarian) was 2.18 µM, the TGI (OVCAR-3 ovarian) was 5.73 µM and the GI50 (OVCAR-4 ovarian) was 3.79 µM. For the same compound, the TGI (OVCAR-4 ovarian) was 17.3 µM, the GI50 (OVCAR-5 ovarian) was 4.38 µM and the TGI (OVCAR-5 ovarian) was 15.7 µM. The GI50 (OVCAR-8 ovarian) was 3.09 µM, the TGI (OVCAR-8 ovarian) was 8.83 µM and the GI50 (PC-3 prostate) was 2.63 µM. The TGI (PC-3 prostate) was 10.9 µM, the GI50 (RPMI-8226 leukemia) was 2.69 µM and the TGI (RPMI-8226 leukemia) was 7.86 µM. For the same compound, the GI50 (SF-268 CNS) was 3.56 µM, the TGI (SF-268 CNS) was 14.7 µM and the GI50 (SF-295 CNS) was 2.16 µM. The TGI (SF-295 CNS) was 5.75 µM, the GI50 (SF-539 CNS) was 1.8 µM and the TGI (SF-539 CNS) was 3.96 µM. It also gave a GI50 (SK-MEL-2 melanoma) of 1.88 µM, a TGI (SK-MEL-2 melanoma) of 6.08 µM and a GI50 (SK-MEL-28 melanoma) of 1.81 µM. The TGI (SK-MEL-28 melanoma) was 7.28 µM, the GI50 (SK-MEL-5 melanoma) was 3.15 µM and the TGI (SK-MEL-5 melanoma) was 11 µM. It also gave a GI50 (SK-OV-3 ovarian) of 3.02 µM, a TGI (SK-OV-3 ovarian) of 8.72 µM and a GI50 (SN12C renal) of 4.03 µM. The TGI (SN12C renal) was 15.5 µM, the GI50 (SNB-19 CNS) was 3.11 µM and the TGI (SNB-19 CNS) was 11.4 µM. For the same compound, the GI50 (SNB-75 CNS) was 1.72 µM, the TGI (SNB-75 CNS) was 5.89 µM and the GI50 (SR leukemia) was 3.07 µM. It also gave a TGI (SR leukemia) greater than 100 µM, a GI50 (SW-620 colon) of 3.63 µM and a TGI (SW-620 colon) of 11.9 µM. The GI50 (T-47D breast) was 2.14 µM, the TGI (T-47D breast) was 8.18 µM and the GI50 (TK-10 renal) was 4.08 µM. The TGI (TK-10 renal) was 16.3 µM, the GI50 (U251 CNS) was 2.98 µM and the TGI (U251 CNS) was 11 µM. It also gave a GI50 (UACC-257 melanoma) of 3.22 µM, a TGI (UACC-257 melanoma) of 9.88 µM and a GI50 (UACC-62 melanoma) of 2.4 µM. It also gave a TGI (UACC-62 melanoma) of 8.77 µM, a GI50 (UO-31 renal) of 2.09 µM and a TGI (UO-31 renal) of 11.7 µM.
